The record followed here is patent US20240239861A1, “GLUCAGON-RECEPTOR SELECTIVE POLYPEPTIDES AND METHODS OF USE THEREOF” (i2O Therapeutics, Inc., priority 2016, published 2024).

The EC50 is the concentration needed to bring the measured effect to its halfway point. Low values mean greater potency, high ones weaker potency. The clearance is the volume of plasma or blood freed of the substance per unit of time. Read a high clearance as efficient removal.

The target of one series is human GLP-1R (Homo sapiens, UniProt P43220). Nature of the series: Peptide-receptor mediated cAMP accumulation (LANCE Ultra cAMP) in CHO-K1 cells transfected with human GLP-1R. The conditions noted are these: hGLP1 pEC50 (cAMP mean (n = 3): 11 point curve starting at 1 nM, Table 3). Format: cell-based. On the technique in general: Cyclic AMP is a second messenger, typically raised through Gs and lowered through Gi signalling.

A further series in a line: in vivo. The conditions noted are these: male, rat.

Where a SMILES comes first, the peptide text is derived from it. [ ]: non-standard residue; d: D form. Aib = CC(C)(N)C(=O)O

Sequence of human GLP-1R (P43220 24-463): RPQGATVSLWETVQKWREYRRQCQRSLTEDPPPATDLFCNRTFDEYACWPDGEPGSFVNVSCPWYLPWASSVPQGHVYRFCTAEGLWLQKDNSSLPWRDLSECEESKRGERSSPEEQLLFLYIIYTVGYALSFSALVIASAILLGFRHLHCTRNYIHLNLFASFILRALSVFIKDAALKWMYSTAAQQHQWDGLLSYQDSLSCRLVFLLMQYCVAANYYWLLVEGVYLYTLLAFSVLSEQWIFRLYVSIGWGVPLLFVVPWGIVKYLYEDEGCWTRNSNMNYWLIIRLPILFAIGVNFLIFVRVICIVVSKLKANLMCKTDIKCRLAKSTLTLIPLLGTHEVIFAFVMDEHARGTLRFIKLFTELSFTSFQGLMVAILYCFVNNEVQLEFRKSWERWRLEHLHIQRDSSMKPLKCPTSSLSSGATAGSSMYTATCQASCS
Method for in vivo: Peptides were formulated in sterile saline and administered as a 3-hour intravenous infusion to non-fasted male Wistar Han or Sprague-Dawley rats (n=3 per group) via jugular vein cannula at a final dose of 0.3 or 0.1 mg/kg. […] Plasma was prepared by centrifugation and stored at −80° C. until analysis.
Protein Precipitation: All 96-well plates were coated with a blocking agent to mitigate non-specific binding of peptides. Plasma samples (75 uL) were added to a 96-well plate containing 200 uL of 2:1 ethanol:acetonitrile containing 0.1% TFA and mixed well via aspiration. Plates were capped, vortex-mixed and centrifuged. Supernatants (215 uL) were transferred to a clean 96-well plate, evaporated to dryness under nitrogen flow and then reconstituted in 75 μL of 20% acetonitrile in water containing 0.10% formic acid.
Solid-Phase Extraction: Samples were diluted 3-fold with 5% NH4OH (aq) and loaded onto an Oasis MAX microElution plate (Waters Corp, Milford, MA) that had been pre-conditioned with 200 uL each of methanol and 5% NH4OH (aq). The plate was washed with 200 uL 5% NH4OH (aq), followed by 200 uL 20% acetonitrile in water. […] Samples were reconstituted in 80 uL 0.1% formic acid in water.
All calibration standards were prepared in control rat plasma containing K2EDTA and protease inhibitor cocktail. […] Samples were injected onto a 2.1×50 mm reverse phase C18 analytical column, typically a Waters ACQUITY UPLC™ HSS T3, 1.8 μm (Waters Corporation, Milford, MA) or similar. […] Typical flow rates were 600 L/min. The column temperature was held constant at 40 or 45° C. Peptides were quantified my monitoring one or more product ions produced from a multiply charged parent ion.

`CC(C)C[C@H](NC(=O)[C@H](Cc1ccc(O)cc1)NC(=O)[C@H](CCCCN)NC(=O)[C@H](CO)NC(=O)[C@H](Cc1ccc(O)cc1)NC(=O)[C@H](CC(=O)O)NC(=O)[C@H](CO)NC(=O)[C@@H](NC(=O)[C@H](Cc1ccccc1)NC(=O)[C@@H](NC(=O)CNC(=O)[C@H](Cc1c[nH]cn1)NC(=O)[C@H](CO)NC(=O)[C@@H](N)Cc1ccc(O)cc1)[C@@H](C)O)[C@@H](C)O)C(=O)N[C@@H](CC(=O)O)C(=O)NC(C)(C)C(=O)N[C@@H](CCCCN)C(=O)N[C@@H](CCCNC(=N)N)C(=O)N[C@@H](C)C(=O)N[C@@H](CCC(N)=O)C(=O)N[C@@H](CCC(=O)O)C(=O)N[C@@H](Cc1ccccc1)C(=O)N[C@H](C(=O)NC(C)(C)C(=O)N[C@@H](Cc1c[nH]c2ccccc12)C(=O)N[C@@H](CC(C)C)C(=O)N[C@@H](CCC(=O)O)C(=O)N[C@@H](CC(=O)O)C(=O)N[C@@H](CCC(=O)O)C(=O)N1CCC[C@H]1C(=O)N[C@@H](CCCCN)C(=O)N[C@@H](CO)C(=O)N[C@@H](CCCCN)C(=O)N[C@@H](C)C(=O)N1CCC[C@H]1C(=O)N1CCC[C@H]1C(=O)N1CCC[C@H]1C(=O)N[C@@H](CO)C(=O)O)C(C)C` [Compound A56] (H-YSHGTFTSDYSKYLD[Aib]KRAQEFV[Aib]WLEDEPKSKAPPPS-OH; N-terminus assumed) showed an EC50 at human GLP-1R greater than 1 nM. Also, in “in vivo”, the clearance was 39.9 mL/min/kg.

`CC(C)C[C@H](NC(=O)[C@H](Cc1ccc(O)cc1)NC(=O)[C@H](CCCCN)NC(=O)[C@H](CO)NC(=O)[C@H](Cc1ccc(O)cc1)NC(=O)[C@H](CC(=O)O)NC(=O)[C@H](CO)NC(=O)[C@@H](NC(=O)[C@H](Cc1ccccc1)NC(=O)[C@@H](NC(=O)CNC(=O)[C@H](Cc1c[nH]cn1)NC(=O)[C@H](CO)NC(=O)[C@@H](N)Cc1ccc(O)cc1)[C@@H](C)O)[C@@H](C)O)C(=O)N[C@@H](CC(=O)O)C(=O)NC(C)(C)C(=O)N[C@@H](CCCCN)C(=O)N[C@@H](CCCNC(=N)N)C(=O)N[C@@H](C)C(=O)N[C@@H](CCC(N)=O)C(=O)N[C@@H](CCC(=O)O)C(=O)N[C@@H](Cc1ccccc1)C(=O)N[C@H](C(=O)NC(C)(C)C(=O)N[C@@H](Cc1c[nH]c2ccccc12)C(=O)N[C@@H](CC(C)C)C(=O)N[C@@H](CCC(=O)O)C(=O)N[C@@H](CC(=O)O)C(=O)N[C@@H](CCC(=O)O)C(=O)N1CCC[C@H]1C(=O)N[C@@H](CCCCN)C(=O)N[C@@H](CO)C(=O)N[C@@H](CCCCN)C(=O)N[C@@H](CO)C(=O)N1CCC[C@H]1C(=O)N1CCC[C@H]1C(=O)N1CCC[C@H]1C(=O)N[C@@H](CO)C(=O)O)C(C)C` [Compound A58] (H-YSHGTFTSDYSKYLD[Aib]KRAQEFV[Aib]WLEDEPKSKSPPPS-OH; N-terminus assumed) returned an EC50 on human GLP-1R greater than 1 nM. In “in vivo”, the clearance amounted to 37.7 mL/min/kg.

On human GLP-1R, `CC(C)C[C@H](NC(=O)[C@H](Cc1ccc(O)cc1)NC(=O)[C@H](CCCCN)NC(=O)[C@H](CO)NC(=O)[C@H](Cc1ccc(O)cc1)NC(=O)[C@H](CC(=O)O)NC(=O)[C@H](CO)NC(=O)[C@@H](NC(=O)[C@H](Cc1ccccc1)NC(=O)[C@@H](NC(=O)CNC(=O)[C@H](Cc1c[nH]cn1)NC(=O)[C@H](CO)NC(=O)[C@@H](N)Cc1ccc(O)cc1)[C@@H](C)O)[C@@H](C)O)C(=O)N[C@@H](CC(=O)O)C(=O)N[C@@H](CO)C(=O)N[C@@H](C)C(=O)N[C@@H](CCCNC(=N)N)C(=O)N[C@@H](C)C(=O)N[C@@H](CCC(N)=O)C(=O)N[C@@H](CCC(=O)O)C(=O)N[C@@H](Cc1ccccc1)C(=O)N[C@H](C(=O)N[C@@H](CCCCN)C(=O)N[C@@H](Cc1c[nH]c2ccccc12)C(=O)N[C@@H](CC(C)C)C(=O)N[C@@H](CCC(=O)O)C(=O)N[C@@H](CC(=O)O)C(=O)N[C@@H](CCC(=O)O)C(=O)N1CCC[C@H]1C(=O)N[C@@H](CCCCN)C(=O)N[C@@H](CO)C(=O)N[C@@H](CCCCN)C(=O)N[C@@H](CCC(=O)O)C(=O)N1CCC[C@H]1C(=O)N1CCC[C@H]1C(=O)N1CCC[C@H]1C(=O)N[C@@H](CO)C(N)=O)C(C)C` [Compound A72] (H-YSHGTFTSDYSKYLDSARAQEFVKWLEDEPKSKEPPPS-NH2) returned a 50% effective concentration (EC50) greater than 1 nM. This molecule showed a clearance in “in vivo” of 31.3 mL/min/kg.

In turn, `CC(C)C[C@H](NC(=O)[C@H](Cc1ccc(O)cc1)NC(=O)[C@H](CCCCN)NC(=O)[C@H](CO)NC(=O)[C@H](Cc1ccc(O)cc1)NC(=O)[C@H](CC(=O)O)NC(=O)[C@H](CO)NC(=O)[C@@H](NC(=O)[C@H](Cc1ccccc1)NC(=O)[C@@H](NC(=O)CNC(=O)[C@H](Cc1c[nH]cn1)NC(=O)[C@H](CO)NC(=O)[C@@H](N)Cc1ccc(O)cc1)[C@@H](C)O)[C@@H](C)O)C(=O)N[C@@H](CC(=O)O)C(=O)NC(C)(C)C(=O)N[C@@H](CCCCN)C(=O)N[C@@H](C)C(=O)N[C@@H](C)C(=O)N[C@@H](CCC(N)=O)C(=O)N[C@@H](CCC(=O)O)C(=O)N[C@@H](Cc1ccccc1)C(=O)N[C@H](C(=O)NC(C)(C)C(=O)N[C@@H](Cc1c[nH]c2ccccc12)C(=O)N[C@@H](CC(C)C)C(=O)N[C@@H](CCC(=O)O)C(=O)N[C@@H](CC(=O)O)C(=O)N[C@@H](CCC(=O)O)C(=O)N1CCC[C@H]1C(=O)N[C@@H](CO)C(=O)N[C@@H](CO)C(=O)NCC(=O)N[C@@H](C)C(=O)N1CCC[C@H]1C(=O)N1CCC[C@H]1C(=O)N1CCC[C@H]1C(=O)N[C@@H](CO)C(=O)O)C(C)C` [Compound A76] (H-YSHGTFTSDYSKYLD[Aib]KAAQEFV[Aib]WLEDEPSSGAPPPS-OH; N-terminus assumed) came in with an EC50 at human GLP-1R greater than 1 nM. Besides, the clearance in “in vivo” was 15.1 mL/min/kg.

Molecule `CC(C)C[C@H](NC(=O)[C@H](Cc1ccc(O)cc1)NC(=O)[C@H](CCCCN)NC(=O)[C@H](CO)NC(=O)[C@H](Cc1ccc(O)cc1)NC(=O)[C@H](CC(=O)O)NC(=O)[C@H](CO)NC(=O)[C@@H](NC(=O)[C@H](Cc1ccccc1)NC(=O)[C@@H](NC(=O)CNC(=O)[C@H](CCC(N)=O)NC(=O)[C@H](CO)NC(=O)[C@@H](N)Cc1ccc(O)cc1)[C@@H](C)O)[C@@H](C)O)C(=O)N[C@@H](CC(=O)O)C(=O)NC(C)(C)C(=O)N[C@@H](CCCCN)C(=O)N[C@@H](CCCNC(=N)N)C(=O)N[C@@H](C)C(=O)N[C@@H](CCC(N)=O)C(=O)N[C@@H](CCC(=O)O)C(=O)N[C@@H](Cc1ccccc1)C(=O)N[C@H](C(=O)NC(C)(C)C(=O)N[C@@H](Cc1c[nH]c2ccccc12)C(=O)N[C@@H](CC(C)C)C(=O)N[C@@H](CCC(=O)O)C(=O)N[C@@H](CC(=O)O)C(=O)N[C@@H](CCC(=O)O)C(=O)N1CCC[C@H]1C(=O)N[C@@H](CO)C(=O)N[C@@H](CO)C(=O)NCC(=O)N[C@@H](CCCCN)C(=O)N1CCC[C@H]1C(=O)N1CCC[C@H]1C(=O)N1CCC[C@H]1C(=O)N[C@@H](CO)C(=O)O)C(C)C` [Compound A86] (H-YSQGTFTSDYSKYLD[Aib]KRAQEFV[Aib]WLEDEPSSGKPPPS-OH; N-terminus assumed) displayed an EC50 at human GLP-1R greater than 1 nM. In “in vivo”, this molecule came in with a clearance of 14.7 mL/min/kg.

`CC(C)C[C@H](NC(=O)[C@H](Cc1ccc(O)cc1)NC(=O)[C@H](CCCCN)NC(=O)[C@H](CO)NC(=O)[C@H](Cc1ccc(O)cc1)NC(=O)[C@H](CC(=O)O)NC(=O)[C@H](CO)NC(=O)[C@@H](NC(=O)[C@H](Cc1ccccc1)NC(=O)[C@@H](NC(=O)CNC(=O)[C@H](CCC(N)=O)NC(=O)[C@H](CO)NC(=O)[C@@H](N)Cc1c[nH]c2ccccc12)[C@@H](C)O)[C@@H](C)O)C(=O)N[C@@H](CC(=O)O)C(=O)NC(C)(C)C(=O)N[C@@H](CCCCN)C(=O)N[C@@H](CCCNC(=N)N)C(=O)N[C@@H](C)C(=O)N[C@@H](CCC(N)=O)C(=O)N[C@@H](CCC(=O)O)C(=O)N[C@@H](Cc1ccccc1)C(=O)N[C@H](C(=O)NC(C)(C)C(=O)N[C@@H](Cc1c[nH]c2ccccc12)C(=O)N[C@@H](CC(C)C)C(=O)N[C@@H](CCC(=O)O)C(=O)N[C@@H](CC(=O)O)C(=O)N[C@@H](CCC(=O)O)C(=O)N1CCC[C@H]1C(=O)N[C@@H](CO)C(=O)N[C@@H](CO)C(=O)NCC(=O)N[C@@H](CCCCN)C(=O)N1CCC[C@H]1C(=O)N1CCC[C@H]1C(=O)N1CCC[C@H]1C(=O)N[C@@H](CO)C(=O)O)C(C)C` [Compound A91] (H-WSQGTFTSDYSKYLD[Aib]KRAQEFV[Aib]WLEDEPSSGKPPPS-OH; N-terminus assumed): the EC50 at human GLP-1R was greater than 1 nM. Also, in the series “in vivo”, the clearance was 13.7 mL/min/kg.

In the case of `CC(C)C[C@H](NC(=O)[C@H](Cc1ccc(O)cc1)NC(=O)[C@H](CCCCN)NC(=O)[C@H](CO)NC(=O)[C@H](Cc1ccc(O)cc1)NC(=O)[C@H](CC(=O)O)NC(=O)[C@H](CO)NC(=O)[C@@H](NC(=O)[C@H](Cc1ccccc1)NC(=O)[C@@H](NC(=O)CNC(=O)[C@H](CCC(N)=O)NC(=O)[C@H](CO)NC(=O)[C@@H](N)Cc1ccc(O)cc1)[C@@H](C)O)[C@@H](C)O)C(=O)N[C@@H](CC(=O)O)C(=O)NC(C)(C)C(=O)N[C@@H](CCCCN)C(=O)N[C@@H](CCCNC(=N)N)C(=O)N[C@@H](C)C(=O)N[C@@H](CCC(N)=O)C(=O)N[C@@H](CCC(=O)O)C(=O)N[C@@H](Cc1ccccc1)C(=O)N[C@H](C(=O)NC(C)(C)C(=O)N[C@@H](Cc1c[nH]c2ccccc12)C(=O)N[C@@H](CC(C)C)C(=O)N[C@@H](CCC(=O)O)C(=O)N[C@@H](CC(=O)O)C(=O)N[C@@H](CCC(=O)O)C(=O)N1CCC[C@H]1C(=O)N[C@@H](CO)C(=O)N[C@@H](CO)C(=O)NCC(=O)N[C@@H](C)C(=O)N1CCC[C@H]1C(=O)N1CCC[C@H]1C(=O)N1CCC[C@H]1C(=O)N[C@@H](CO)C(=O)O)C(C)C` [Compound A94] (H-YSQGTFTSDYSKYLD[Aib]KRAQEFV[Aib]WLEDEPSSGAPPPS-OH; N-terminus assumed), at human GLP-1R, the EC50 was greater than 1 nM. The same molecule displayed a clearance in “in vivo” of 16.5 mL/min/kg.
